Test results taken from the supplement of paper PMC13380429.

Tests used:
Conditions in all cases: 72 h
[1] = system: Caco-2; assay: relative viability EC50 (midpoint between 100% and the lowest measured viability); higher = less toxic
[2] = system: HepG2; assay: as above
[3] = system: U2OS; assay: as above
[4] = system: Calu-3; assay: as above
[5] = system: Caco-2; assay: drug sensitivity score (DSS) for viability; higher = more toxic; extreme values may be limits of the assay
[6] = system: HepG2; assay: as above
[7] = system: U2OS; assay: as above
[8] = system: Calu-3; assay: as above
[9] = system: Vero E6; assay: as above
[10] = system: Caco-2; assay: cell viability relative to DMSO; higher = less toxic
[11] = system: HepG2; assay: as above
[12] = system: U2OS; assay: as above
[13] = system: Calu-3; assay: as above
[14] = system: Vero E6; assay: as above
[15] = system: Vero E6; assay: relative viability EC50 (midpoint between 100% and the lowest measured viability); higher = less toxic

Row | Compound | relative viability EC50 [1] [µM] | relative viability EC50 [2] [µM] | relative viability EC50 [3] [µM] | relative viability EC50 [4] [µM] | drug sensitivity score [5] | drug sensitivity score [6] | drug sensitivity score [7] | drug sensitivity score [8] | drug sensitivity score [9] | cell viability ([10]; 1 nM) [%] | cell viability ([10]; 10 nM) [%] | cell viability ([10]; 100 nM) [%] | cell viability ([10]; 1000 nM) [%] | cell viability ([10]; 10000 nM) [%] | cell viability ([11]; 1 nM) [%] | cell viability ([11]; 10 nM) [%] | cell viability ([11]; 100 nM) [%] | cell viability ([11]; 1000 nM) [%] | cell viability ([11]; 10000 nM) [%] | cell viability ([12]; 1 nM) [%] | cell viability ([12]; 10 nM) [%] | cell viability ([12]; 100 nM) [%] | cell viability ([12]; 1000 nM) [%] | cell viability ([12]; 10000 nM) [%] | cell viability ([13]; 1 nM) [%] | cell viability ([13]; 10 nM) [%] | cell viability ([13]; 100 nM) [%] | cell viability ([13]; 1000 nM) [%] | cell viability ([13]; 10000 nM) [%] | cell viability ([14]; 1 nM) [%] | cell viability ([14]; 10 nM) [%] | cell viability ([14]; 100 nM) [%] | cell viability ([14]; 1000 nM) [%] | cell viability ([14]; 10000 nM) [%] | relative viability EC50 [15] [µM]
1 | CCc1ccc(C2=CC(C)(C)Sc3ccc(C#Cc4ccc(C(=O)O)cc4)cc32)cc1 | > 10 | > 10 | > 10 | > 10 | 0.6 | 2.9 | 0 | 0 | 6.1 | 100 | 103 | 97.7 | 100 | 79.4 | 94.7 | 89.7 | 83.7 | 80.6 | 90.1 | 101 | 102 | 96.6 | 104 | 93.2 | 90.9 | 113 | 95.5 | 94.6 | 95.2 | 98.5 | 89.8 | 81.2 | 74.9 | 80.6 | –
2 | CN(C)CCCn1cc(C2=C(c3c[nH]c4ccccc34)C(=O)NC2=O)c2ccccc21 | > 10 | 2.6 | – | – | 0 | 4.5 | 1.2 | 1.1 | 2 | 91 | 90.5 | 94.1 | 98 | 89.3 | 94.7 | 96.2 | 102 | 95.2 | 31 | 98.8 | 103 | 96.5 | 101 | 70.8 | 105 | 94.2 | 92 | 107 | 68.6 | 101 | 95.2 | 98.3 | 96.3 | 68.8 | –
3 | Cc1c(N2C(=O)[C@@H]3[C@H](O)CCN3C2=O)ccc(C#N)c1Cl | > 10 | > 10 | > 10 | > 10 | 0 | 0 | 0 | 0 | – | 95.4 | 100 | 89.1 | 93.1 | 90.3 | 97.7 | 95.4 | 94 | 93.8 | 97.1 | 94.8 | 99.8 | 98.6 | 94.4 | 97.1 | 106 | 101 | 97.4 | 109 | 105 | – | – | – | – | – | –
4 | COc1cc(N)c(Cl)cc1C(=O)N[C@@H]1CCN(CCCOc2ccc(F)cc2)C[C@@H]1OC (racemic) [cisapride] | > 10 | > 10 | > 10 | > 10 | 0 | 0 | 0 | 0 | – | 99.8 | 103 | 100 | 98.9 | 90.3 | 99.7 | 101 | 96 | 104 | 102 | 97.4 | 101 | 93.8 | 98.3 | 93.5 | 99.6 | 101 | 84 | 107 | 110 | – | – | – | – | – | –
5 | O=C(OCCO)c1ccccc1O [2-hydroxyethyl-salicylate] | > 10 | > 10 | > 10 | > 10 | 0 | 0 | 0 | 0 | – | 114 | 108 | 100 | 104 | 93.3 | 103 | 99.8 | 108 | 100 | 89 | 99.2 | 102 | 98.6 | 104 | 97.6 | 97.5 | 95.5 | 108 | 108 | 94.8 | – | – | – | – | – | –
6 | CCC(O)(CC(N)=O)c1ccccc1 (stereo unspecified) [3-hydroxy-3-phenylpentanamide] | > 10 | > 10 | > 10 | > 10 | 0 | 0 | 0 | 0 | – | 96.1 | 106 | 102 | 100 | 95.8 | 95.9 | 93 | 107 | 100 | 98.1 | 95 | 99 | 98.3 | 104 | 99 | 98.2 | 106 | 89.4 | 103 | 108 | – | – | – | – | – | –
7 | CCOc1nc2c(N)ncnc2n1CC [ANR-94] | > 10 | > 10 | > 10 | > 10 | 0 | 0 | 0 | 0 | – | 102 | 98.3 | 92.1 | 90.9 | 95.1 | 102 | 98.3 | 97.3 | 96.9 | 93.2 | 104 | 96.2 | 101 | 101 | 105 | 105 | 95.1 | 96.5 | 95.9 | 102 | – | – | – | – | – | –
8 | Cc1ccc(NC(=O)c2cccc(C(C)(C)C#N)c2)cc1Nc1ccc2ncn(C)c(=O)c2c1 [AZ-628] | – | 0.148 | 1.81 | – | 3.7 | 18.1 | 4.8 | – | 4.8 | 95.8 | 102 | 98.2 | 81.9 | 63.8 | 97.5 | 102 | 69.9 | 22 | 16.6 | 98.7 | 98.6 | 93.2 | 89.7 | 43.3 | – | – | – | – | – | 101 | 102 | 102 | 84.2 | 52.4 | –
9 | O=C(NCCCNc1nc(Nc2cccc(NC(=O)N3CCCC3)c2)ncc1I)c1cccs1 [BX-795] | – | 3.26 | 2.1 | > 10 | 2.9 | 3.5 | 5.3 | 0 | 1.8 | 98.2 | 98 | 105 | 92.6 | 63.7 | 96.9 | 90.4 | 96.7 | 101 | 34.7 | 104 | 99.3 | 100 | 90.9 | 31.2 | 93.4 | 97.3 | 102 | 107 | 89.2 | 97.8 | 98.4 | 97 | 101 | 61.7 | –
10 | Cc1cc(O)cc2c1O[C@](C)(CCC[C@H](C)CCC[C@H](C)CCCC(C)C)CC2 [D-delta-tocopherol] | > 10 | > 10 | > 10 | > 10 | 0 | 0 | 0 | 0 | – | 102 | 109 | 99.8 | 103 | 99.1 | 114 | 110 | 116 | 103 | 99.4 | 97.7 | 103 | 96.9 | 106 | 98 | 89.4 | 96.6 | 84.8 | 93.8 | 79.4 | – | – | – | – | – | –
11 | CC(=O)c1ccc2c(c1)[C@@H]1C=CC[C@@H]1[C@H](c1cc3c(cc1Br)OCO3)N2 [G-1] | – | 3.53 | 3.38 | – | 2.4 | 3.1 | 2.5 | – | 5.8 | 96.8 | 93.4 | 102 | 98 | 58.2 | 95.4 | 88.4 | 111 | 105 | 36.4 | 100 | 98.2 | 94.3 | 102 | 49.7 | – | – | – | – | – | 102 | 93.3 | 95.8 | 84.8 | 37.1 | 1.57
12 | COc1cccc(OC)c1-c1cc(C(=O)N[C@@H](CC(C)C)C(=O)O)nn1-c1ccnc2cc(Cl)ccc12 [TC-NTR1-17] | > 10 | > 10 | – | > 10 | 0 | 0 | – | 0 | – | 103 | 99.6 | 100 | 91.7 | 99.9 | 102 | 106 | 97 | 106 | 106 | – | – | – | – | – | 117 | 102 | 93 | 104 | 104 | – | – | – | – | – | –
13 | Cc1c(C(=O)Nc2ccc(N3CCC(N4CCOCC4)CC3)c(C#N)c2)cnn1-c1ccc(Cl)cc1 [Y-320] | – | 1.42 | – | – | 2.4 | 7.6 | – | 2.2 | 0.8 | 104 | 93.8 | 103 | 87.5 | 74.9 | 106 | 109 | 105 | 77.4 | 23 | – | – | – | – | – | 103 | 103 | 90.1 | 89.6 | 69.9 | 104 | 104 | 106 | 104 | 74.6 | –
14 | C#Cc1cncc([C@@H]2CCCN2C)c1 [altinicline] | > 10 | > 10 | > 10 | > 10 | 0 | 0 | 0 | 0 | – | 101 | 92.9 | 102 | 98.7 | 97.7 | 98.5 | 96.8 | 106 | 105 | 93.5 | 102 | 91.9 | 102 | 97.4 | 98.9 | 98.3 | 99 | 93.9 | 102 | 110 | – | – | – | – | – | –
15 | Nc1c(Br)cc(Br)cc1CN[C@H]1CC[C@H](O)CC1 [ambroxol] | > 10 | > 10 | > 10 | > 10 | 0 | 0 | 0 | 0.2 | – | 100 | 92.8 | 98.5 | 89.4 | 97.5 | 102 | 98.5 | 99.6 | 103 | 87.5 | 103 | 99 | 103 | 101 | 101 | 105 | 101 | 102 | 91.8 | 88.7 | – | – | – | – | – | –
16 | C[C@H](c1ccc2ccc(OC3CCC(C(F)(F)F)CC3)c(C(F)(F)F)c2c1)N1C2CCC1CC(C(=O)O)C2 (stereo partly specified) [autotaxin-modulator-1] | > 10 | – | > 10 | > 10 | 0.7 | 1.8 | 0.1 | 0 | 0 | 105 | 91.2 | 96.1 | 96.6 | 83.2 | 90.4 | 91 | 105 | 96 | 71.9 | 93.3 | 95.9 | 94.3 | 95.1 | 83.7 | 114 | 97.6 | 100 | 106 | 96.2 | 99.2 | 103 | 96.4 | 93.8 | 89 | > 10
